Data from US9771343B2, “2-alkyl-or-aryl-substituted tanshinone derivatives, and preparation method and application thereof” (Hangzhou Bensheng Pharmaceutical Co., Ltd., priority 2011, dated 2017).
Values after ≈ are worked out from the molar mass of the structure shown.

Key:
[1] = tested on: K562/adr (drug-resistant, chronic myeloid leukemia, CML); assay: MTT cell growth inhibition, K562/adr leukemia cells, 72 h; type: cell-based; details: K562/ADR
Description: (§1) The standard sample of tanshinone I (TA) and the 2-alkyl- or 2-aromatic-substituted tanshinone I derivatives of the present invention are sufficiently dissolved in dimethylsulfoxide to produce a stock solution of 10 mg/mL, which is refrigerated at 4° C. and stored in dark, and is diluted with cell culture medium to a desired concentration prior to experimentation.
(§2) Obtaining 6000 well-growing leukemia cells and inoculating them into wells of a 96-well cell culture plate. The culture medium is the RPMI-1640 cell culture medium containing 10% fetal bovine serum. After adding on the second day the 2-alkyl- or 2-aromatic-substituted tanshinone I derivatives of different concentrations and mixing uniformly, placing the plate in a carbon dioxide cell incubator (5% CO2) at 37° C. and incubated for 72 hours. Then the viable cell concentration is determined by MTT method. In this experiment, the cell viability in control group (not treated with any compound) is set as 100%, and the cell viability (%) after treatment by the compounds and the half maximum inhibitory concentration for the leukemia cell at 72 hours (IC50 value of 72 hours, μg/mL) are calculated.

[2] = tested on: Kasumi-1 (acute myeloid leukemia M2 type, AML-M2); assay: MTT cell growth inhibition, Kasumi-1 leukemia cells, 72 h; type: cell-based; details: Kasumi-1, 72 h
Description: as §1, §2

[3] = tested on: NB4 (acute promyelocytic leukemia, AML); assay: MTT cell growth inhibition, NB4 leukemia cells, 72 h; type: cell-based; details: NB4, 72 h
Description: as §1, §2

[4] = tested on: Jurkat (acute lymphoblastic leukemia, ALL); assay: MTT cell growth inhibition, Jurkat leukemia cells, 72 h; type: cell-based; details: 72 h
Description: as §1, §2

[5] = tested on: H9 (acute lymphoblastic leukemia, ALL); assay: MTT cell growth inhibition, H9 leukemia cells, 72 h; type: cell-based; details: H9, 72 h
Description: as §1, §2

[6] = tested on: RPMI8226 (multiple myeloma); assay: MTT cell growth inhibition, RPMI8226 multiple myeloma cells, 72 h; type: cell-based, human; details: RPMI 8226, 72 h
Description: as §1, §2

A549 (human lung cancer) = assay: MTT cell growth inhibition, A549 cells, 72 h; type: cell-based; details: A549, 72 h
Description: (§3) The standard sample of tanshinone I (TA) and the 2-alkyl- or 2-aromatic-substituted tanshinone I derivatives of the present invention are sufficiently dissolved in dimethylsulfoxide to produce a stock solution of 10 mg/mL, which is refrigerated at 4° C. and stored in dark, and is diluted with a cell culture medium to the desired concentration prior to experimentation.
(§4) Obtaining 6000 well-growing human solid tumor cells and inoculating them into wells of a 96-well cell culture plate. The culture medium is DMEM High Glucose cell culture medium containing 10% fetal bovine serum. The plate is placed in a carbon dioxide cell incubator (5% CO2) at 37° C. and incubated for 24 hours. After adding the 2-alkyl- or 2-aromatic-substituted tanshinone I derivatives of different concentrations and mixing uniformly, the plate is placed in a carbon dioxide cell incubator (5% CO2) at 37° C. and incubated for 72 hours. Then the viable cell concentration is determined by MTT method. In this experiment, the cell viability in control group (not treated with any compound) is set as 100%, and the cell viability (%) after treatment by the compounds and the half maximum inhibitory concentration for the leukemia cell at 72 hours (IC50 value of 72 hours, μg/mL) are calculated.

[7] = tested on: PANC-1 (pancreatic cancer); assay: MTT cell growth inhibition, PANC-1 cells, 72 h; type: cell-based, human; details: PANC-1, 72 h
Description: as §3, §4

[8] = tested on: Becap37 (human breast cancer cell); assay: MTT cell growth inhibition, Becap37 cells, 72 h; type: cell-based; details: Becap-37, 72 h
Description: as §3, §4

MG63 (osteosarcoma) = assay: MTT cell growth inhibition, MG63 cells, 72 h; type: cell-based, human; details: MG-63, 72 h
Description: as §3, §4

[9] = tested on: Hep G2 (human liver cancer cell); assay: MTT cell growth inhibition, Hep G2 cells, 72 h; type: cell-based; details: Hep G2, 72 h
Description: as §3, §4

[10] = tested on: RKO (human colon adenocarcinoma cell); assay: MTT cell growth inhibition, RKO cells, 72 h; type: cell-based; details: RKO, 72 h
Description: as §3, §4

[11] = tested on: U87 MG (malignant glioma cell); assay: MTT cell growth inhibition, U87 MG cells, 72 h; type: cell-based, human; details: U87-MG, 72 h
Description: as §3, §4

[12] = tested on: Hela (human cervical cancer cell); assay: MTT cell growth inhibition, Hela cells, 72 h; type: cell-based; details: Hela, 72 h
Description: as §3, §4

[13] = tested on: CaES-17 (esophageal cancer cell); assay: MTT cell growth inhibition, CaES-17 cells, 72 h; type: cell-based, human; details: CaEs-17, 72 h
Description: as §3, §4

[14] = tested on: CNE (nasopharyngeal carcinoma cell); assay: MTT cell growth inhibition, CNE cells, 72 h; type: cell-based, human; details: CNE, 72 h
Description: as §3, §4

[15] = tested on: Hep-2 (laryngeal carcinoma); assay: MTT cell growth inhibition, Hep-2 cells, 72 h; type: cell-based, human; details: Hep-2, 72 h
Description: as §3, §4

[16] = tested on: MGC 803 (human gastric cancer cell); assay: MTT cell growth inhibition, MGC 803 cells, 72 h; type: cell-based; details: MGC-803, 72 h
Description: as §3, §4

PC-3 (prostate cancer) = assay: MTT cell growth inhibition, PC-3 cells, 72 h; type: cell-based, human; details: PC-3, 72 h
Description: as §3, §4

[17] = tested on: SK-OV-3 (ovarian cancer cell); assay: MTT cell growth inhibition, SK-OV-3 cells, 72 h; type: cell-based, human; details: SK-OV-3, 72 h
Description: as §3, §4

Hep G2 cells = details: in vitro, literature report; cited from earlier work
tumor-bearing nude mice = details: literature report; cited from earlier work
[18] = tested on: SGC-7901 human gastric adenocarcinoma cells; details: concentration dependent within a certain range, literature report; cited from earlier work
[19] = background statement; cited from earlier work
[20] = background statement; cited from earlier work; remark: listed apart in the source

For `Cc1coc2c1C(=O)C(=O)c1c-2ccc2c(C)cccc12` [TA, 1,6-dimethyl-phenanthreno [1,2-b]furan-10,11-diketone, reference compound], the IC50 [1] was 0.88 µg/mL (≈ 3.19 µM), the IC90 [1] was 4.17 µg/mL (≈ 15.1 µM) and the IC50 [2] was 0.99 µg/mL (≈ 3.58 µM). It also gave an IC90 [2] of 3.62 µg/mL (≈ 13.1 µM), an IC50 [3] of 0.98 µg/mL (≈ 3.55 µM) and an IC90 [3] of 2.5 µg/mL (≈ 9.05 µM). The IC50 [4] was 1.74 µg/mL (≈ 6.3 µM), the IC90 [4] was 8.42 µg/mL (≈ 30.5 µM) and the IC50 [5] was 3.5 µg/mL (≈ 12.7 µM). It also gave an IC90 [5] of 13.06 µg/mL (≈ 47.3 µM), an IC50 [6] of 0.96 µg/mL (≈ 3.47 µM) and an IC90 [6] of 10.86 µg/mL (≈ 39.3 µM). For the same compound, the IC50 (A549 (human lung cancer)) was 4.03 µg/mL (≈ 14.6 µM), the IC90 (A549 (human lung cancer)) was 17.29 µg/mL (≈ 62.6 µM) and the IC50 [7] was 2.7 µg/mL (≈ 9.77 µM). It also gave an IC90 [7] greater than 16 µg/mL, an IC50 [8] of 3.03 µg/mL (≈ 11 µM) and an IC90 [8] greater than 16 µg/mL. For the same compound, the IC50 (MG63 (osteosarcoma)) was 0.96 µg/mL (≈ 3.47 µM), the IC90 (MG63 (osteosarcoma)) was greater than 16 µg/mL and the IC50 [9] was 2.19 µg/mL (≈ 7.93 µM). For the same compound, the IC90 [9] was 22.13 µg/mL (≈ 80.1 µM), the IC50 [10] was 1.83 µg/mL (≈ 6.62 µM) and the IC90 [10] was greater than 16 µg/mL. It also gave an IC50 [11] of 6.36 µg/mL (≈ 23 µM), an IC90 [11] of 14.63 µg/mL (≈ 53 µM) and an IC50 [12] of 4 µg/mL (≈ 14.5 µM). For the same compound, the IC90 [12] was greater than 16 µg/mL, the IC50 [13] was 3.18 µg/mL (≈ 11.5 µM) and the IC90 [13] was 16.00 µg/mL (≈ 57.9 µM). For the same compound, the IC50 [14] was 7.4 µg/mL (≈ 26.8 µM), the IC90 [14] was greater than 16 µg/mL and the IC50 [15] was 3.15 µg/mL (≈ 11.4 µM). It also gave an IC90 [15] greater than 16 µg/mL, an IC50 [16] of 1.62 µg/mL (≈ 5.86 µM) and an IC90 [16] of 9.26 µg/mL (≈ 33.5 µM). It also gave an IC50 (PC-3 (prostate cancer)) of 6.63 µg/mL (≈ 24 µM), an IC90 (PC-3 (prostate cancer)) of 10.57 µg/mL (≈ 38.3 µM) and an IC50 [17] greater than 16 µg/mL. For the same compound, the IC90 [17] was greater than 16 µg/mL, the “effect on proliferation of Hep G2 cells” value (Hep G2 cells) was “can inhibit the proliferation of Hep G2 cells” and the “effect on tumor growth in tumor-bearing nude mice” value (tumor-bearing nude mice) was “can inhibit the tumor growth in the mice”. For the same compound, the “effect on growth of SGC-7901 cells cultured in vitro” value [18] was “significant inhibitory effect”, the solubility in water [19] was “poor solubility in water” and the in vivo bioavailability [20] was “low in vivo bioavailability”.
